Common to all, as to type: in vivo
For data set [1], the system named is Abutilon theophrasti (velvetleaf). Nature of the data set: Test Example-4: herbicidal effect by a foliage treatment after weeds are generated under upland field conditions. Conditions: 500 g a.i/ha, foliage treatment after emergence, about 14 days after treatment, score 0-5. The procedure, abridged: (§1)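 Sown seeds, under about 0.5 cm of soil cover in upland soil, grew for 14 days before compound application. A wettable powder or emulsifiable concentrate, diluted to a predetermined dosage, was sprayed over foliage in 4000 L/ha water, with scoring on a 0–5 scale after roughly 14 days.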

In data set [2] the test system is Chenopodium album (common lambsquarters). Described as above. Conditions: 500 g a.i/ha, foliage treatment after emergence, about 14 days after treatment, score 0-5. The procedure, abridged:
as §1

In data set [3] the test system is Amaranthus viridis (green amaranthus). Described as above. Conditions: 500 g a.i/ha, foliage treatment after emergence, about 14 days after treatment, score 0-5. The gist of the method: as §1
In data set [4] the test system is corn. Put plainly: Test Example-4: phytotoxicity by a foliage treatment after weeds are generated under upland field conditions. Conditions: 500 g a.i/ha, foliage treatment after emergence, about 14 days after treatment, score 0-5. The procedure, abridged:
as §1

The test system of data set [5] is Chenopodium album (common lambsquarters). Nature of the data set: Test Example-2: herbicidal effect by a soil treatment before weeds are generated under upland field conditions. Conditions: application amount 500 g a.i/ha, soil spray treatment before weeds are generated, about 21 days after the treatment, score 0 to 5. An excerpt:
(§2) Using the formulation prepared according to the methods described above, the herbicidal effect of the bicyclic pyrazolinone derivative of the invention according to the methods shown in Test Examples below was examined. The herbicidal effect with respect to the test weeds or the phytotoxicity with respect to the test crops was examined according to the following criteria, and evaluated in six stage scores of 0 to 5. A vat having an area of 81 cm^2 and a depth of 3.5 cm was filled with upland soil, then, seeds of Amaranthus viridis (green amaranthus), Chenopodium album (common lambsquarters), and corn were seeded thereto, and the seeds were covered with soil of about 0.5 cm. Next day, a wettable powder or an emulsifiable concentrate of the compound of the present invention prepared according to Formulation Example was diluted, and a spray treatment was uniformly performed on the covered oil so as to be a predetermined dosage. The herbicidal effect with respect to the test weeds and the phytotoxicity with respect to corn about 21 days after the treatment were evaluated according to the evaluation criteria in six stages of 0 to 5 described above.

For data set [6], the system named is Amaranthus viridis (green amaranthus). The description is as above. Conditions: application amount 500 g a.i/ha, soil spray treatment before weeds are generated, about 21 days after the treatment, score 0 to 5.
From the text: as §2

Data set [7] deals with corn. Put plainly: Test Example-2: phytotoxicity by a soil treatment before weeds are generated under upland field conditions. Conditions: application amount 500 g a.i/ha, soil spray treatment before weeds are generated, about 21 days after the treatment, score 0 to 5.
From the text: as §2

Data set [8] has as its system Cyperus difformis (smallflower umbrella plant). Put plainly: Test Example-1: herbicidal effect by a treatment before weeds are generated under submerged conditions. Conditions: 500 g a.i/ha, pre-emergence treatment, about 15 days after treatment, score 0-5. The gist of the method: (§3)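 Treatment is made before weed emergence: seeds sit in puddled, submerged paddy soil and receive the diluted wettable powder or emulsifiable concentrate into the water at a fixed dosage. Rating on a 0–5 scale follows after around 15 days.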

The test system of data set [9] is Eleocharis acicularis (needle spikerush). Described as above. Conditions: 500 g a.i/ha, pre-emergence treatment, about 15 days after treatment, score 0-5. The procedure, abridged:
as §3

Data set [10] concerns Echinochloa oryzicola (barnyard grass). The description is as above. Conditions: 500 g a.i/ha, pre-emergence treatment, about 15 days after treatment, score 0-5. The gist of the method:
as §3

In data set [11] the test system is Monochoria vaginalis (monochoria). Described as above. Conditions: 500 g a.i/ha, pre-emergence treatment, about 15 days after treatment, score 0-5. The gist of the method:
as §3

Data set [12] deals with Scirpus juncoides (bulrush). Described as above. Conditions: 500 g a.i/ha, pre-emergence treatment, about 15 days after treatment, score 0-5. The gist of the method:
as §3

Data set [13] deals with other annual broad leaf weeds (Lindernia procumbens, Rotala indica, Elatine triandra). Described as above. Conditions: 500 g a.i/ha, pre-emergence treatment, about 15 days after treatment, score 0-5. The gist of the method: as §3

Regarding `CS(=O)(=O)Nc1cc(-c2c(Cl)n3n(c2=O)CCCC3)c(F)cc1Cl` [Example 5-35], the “Herbicidal effect Abutilon theophrast” value in [1] is 5 (Herbicidal effect/phytotoxicity was 90% or greater). Further, the “Herbicidal effect Chenopodium album” value in data set [2] and in data set [5] was 5 (Herbicidal effect/phytotoxicity was 90% or greater) each time. The “Herbicidal effect Amaranthus viridis” value in [3] and in [6] was 5 (Herbicidal effect/phytotoxicity was 90% or greater) each time. In addition, the “Phytotoxicity Corn” value in the data set with corn [4] and in the data set on corn [7] was 0 (Herbicidal effect/phytotoxicity was 0% to 10%) in each case.

For the compound `O=c1c(-c2cc(NS(=O)(=O)CCl)c(Cl)cc2F)c(Cl)n2n1CCOCC2` [Example 5-49], the “Herbicidal effect Abutilon theophrast” value in [1] is recorded as 5 (Herbicidal effect/phytotoxicity was 90% or greater). The “Herbicidal effect Chenopodium album” value in data set [2] and in data set [5] was 5 (Herbicidal effect/phytotoxicity was 90% or greater) in each case. For the same compound, the “Herbicidal effect Amaranthus viridis” value in data set [3] and in [6] was 5 (Herbicidal effect/phytotoxicity was 90% or greater) in each case. Moreover, the “Phytotoxicity Corn” value in the data set with corn [4] is on record as 1 (Herbicidal effect/phytotoxicity was 10% to 30%); with corn [7], 0 (Herbicidal effect/phytotoxicity was 0% to 10%).

In the case of `COc1cc(-c2c(Cl)n3n(c2=O)CCOCC3)c(Cl)cc1Cl` [Example 1-296], in data set [8], the “Herbicidal effect Cyperus difformis” value is recorded as 5 (Herbicidal effect/phytotoxicity was 90% or greater). In addition, the “Herbicidal effect Eleocharis acicularis” value in data set [9] was 5 (Herbicidal effect/phytotoxicity was 90% or greater). Also, the “Herbicidal effect Echinochloa oryzicola” value in data set [10] is 5 (Herbicidal effect/phytotoxicity was 90% or greater). The “Herbicidal effect Monochoria vaginalis” value in [11] was 5 (Herbicidal effect/phytotoxicity was 90% or greater). In addition, the “Herbicidal effect Scirpus juncoides” value in data set [12] is given as 5 (Herbicidal effect/phytotoxicity was 90% or greater). The “Herbicidal effect Broadleaf weed” value in [13] was 5 (Herbicidal effect/phytotoxicity was 90% or greater). In data set [5], the “Herbicidal effect Chenopodium album” value was 5 (Herbicidal effect/phytotoxicity was 90% or greater). Besides, the “Herbicidal effect Amaranthus viridis” value in [6] is 5 (Herbicidal effect/phytotoxicity was 90% or greater). In the data set on corn [7], the “Phytotoxicity Corn” value is 0 (Herbicidal effect/phytotoxicity was 0% to 10%).

Consider `C#CCOc1cc(-c2c(Cl)n3n(c2=O)CCCCC3)c(F)cc1F` [Example 1-367], for which, in data set [8], the “Herbicidal effect Cyperus difformis” value is recorded as 5 (Herbicidal effect/phytotoxicity was 90% or greater). For the same compound, the “Herbicidal effect Eleocharis acicularis” value in data set [9] is on record as 5 (Herbicidal effect/phytotoxicity was 90% or greater). The “Herbicidal effect Echinochloa oryzicola” value in data set [10] is listed as 5 (Herbicidal effect/phytotoxicity was 90% or greater). The “Herbicidal effect Monochoria vaginalis” value in data set [11] is listed as 5 (Herbicidal effect/phytotoxicity was 90% or greater). Moreover, the “Herbicidal effect Scirpus juncoides” value in data set [12] was 5 (Herbicidal effect/phytotoxicity was 90% or greater). The “Herbicidal effect Broadleaf weed” value in data set [13] is listed as 5 (Herbicidal effect/phytotoxicity was 90% or greater). Further, in data set [5], the “Herbicidal effect Chenopodium album” value is 5 (Herbicidal effect/phytotoxicity was 90% or greater). The “Herbicidal effect Amaranthus viridis” value in data set [6] is reported as 5 (Herbicidal effect/phytotoxicity was 90% or greater). The “Phytotoxicity Corn” value in the data set with corn [7] is given as 0 (Herbicidal effect/phytotoxicity was 0% to 10%).

Regarding `O=c1c(-c2cc(NS(=O)(=O)C3CC3)c(Cl)cc2F)c(Cl)n2n1CCCC2` [Example 5-58], the “Herbicidal effect Abutilon theophrast” value in data set [1] was 5 (Herbicidal effect/phytotoxicity was 90% or greater). For the same compound, the “Herbicidal effect Chenopodium album” value in data set [2] and in data set [5] was 5 (Herbicidal effect/phytotoxicity was 90% or greater) each time. In addition, the “Herbicidal effect Amaranthus viridis” value in data set [3] and in data set [6] was 5 (Herbicidal effect/phytotoxicity was 90% or greater) in each case. Besides, the “Phytotoxicity Corn” value with corn [4] and with corn [7] was 0 (Herbicidal effect/phytotoxicity was 0% to 10%) each time.

In the case of `C#CCOc1cc(-c2c(Cl)n3n(c2=O)CCCCC3)c(F)cc1Cl` [Example 1-239], the “Herbicidal effect Abutilon theophrast” value in data set [1] is recorded as 5 (Herbicidal effect/phytotoxicity was 90% or greater). Also, the “Herbicidal effect Chenopodium album” value in data set [2] and in [5] was 5 (Herbicidal effect/phytotoxicity was 90% or greater) in each case. Moreover, the “Herbicidal effect Amaranthus viridis” value in [3] and in data set [6] was 5 (Herbicidal effect/phytotoxicity was 90% or greater) each time. Also, the “Phytotoxicity Corn” value was 2 (Herbicidal effect/phytotoxicity was 30% to 50%) in the data set with corn [4] and 0 (Herbicidal effect/phytotoxicity was 0% to 10%) in the data set on corn [7].

For `CS(=O)(=O)N(c1cc(-c2c(Cl)n3n(c2=O)CCCC3)c(F)cc1Cl)S(C)(=O)=O` [Example 5-71], the “Herbicidal effect Abutilon theophrast” value in [1] was 5 (Herbicidal effect/phytotoxicity was 90% or greater). In addition, the “Herbicidal effect Chenopodium album” value in data set [2] and in data set [5] was 5 (Herbicidal effect/phytotoxicity was 90% or greater) each time. In addition, the “Herbicidal effect Amaranthus viridis” value in data set [3] and in data set [6] was 5 (Herbicidal effect/phytotoxicity was 90% or greater) in each case. Besides, the “Phytotoxicity Corn” value in the data set on corn [4] and with corn [7] was 0 (Herbicidal effect/phytotoxicity was 0% to 10%) in each case.

For `COc1cc(-c2c(Cl)n3n(c2=O)CCOCC3)c(F)cc1F` [Example 1-89], the “Herbicidal effect Cyperus difformis” value in data set [8] is listed as 5 (Herbicidal effect/phytotoxicity was 90% or greater). Besides, the “Herbicidal effect Eleocharis acicularis” value in [9] is 5 (Herbicidal effect/phytotoxicity was 90% or greater). Besides, in [10], the “Herbicidal effect Echinochloa oryzicola” value was 5 (Herbicidal effect/phytotoxicity was 90% or greater). Moreover, in data set [11], the “Herbicidal effect Monochoria vaginalis” value was 5 (Herbicidal effect/phytotoxicity was 90% or greater). Moreover, the “Herbicidal effect Scirpus juncoides” value in [12] is 5 (Herbicidal effect/phytotoxicity was 90% or greater). For the same compound, the “Herbicidal effect Broadleaf weed” value in [13] is on record as 5 (Herbicidal effect/phytotoxicity was 90% or greater). The “Herbicidal effect Chenopodium album” value in data set [5] was 5 (Herbicidal effect/phytotoxicity was 90% or greater). Further, the “Herbicidal effect Amaranthus viridis” value in data set [6] was 5 (Herbicidal effect/phytotoxicity was 90% or greater). Further, the “Phytotoxicity Corn” value in the data set on corn [7] was 0 (Herbicidal effect/phytotoxicity was 0% to 10%).

For the compound `CCOC(=O)C(OCC)Oc1ccccc1Oc1cc(-c2c(Cl)n3n(c2=O)CCCC3)c(F)cc1Cl` (centres unmarked) [Compound 3-18], in data set [8], the “Herbicidal effect Cyperus difformis” value is reported as 5 (Herbicidal effect/phytotoxicity was 90% or greater). Further, in data set [9], the “Herbicidal effect Eleocharis acicularis” value was 5 (Herbicidal effect/phytotoxicity was 90% or greater). The “Herbicidal effect Echinochloa oryzicola” value in data set [10] was 5 (Herbicidal effect/phytotoxicity was 90% or greater). The “Herbicidal effect Monochoria vaginalis” value in [11] is given as 5 (Herbicidal effect/phytotoxicity was 90% or greater). Further, in [12], the “Herbicidal effect Scirpus juncoides” value is 5 (Herbicidal effect/phytotoxicity was 90% or greater). The “Herbicidal effect Broadleaf weed” value in data set [13] is 5 (Herbicidal effect/phytotoxicity was 90% or greater). Besides, the “Herbicidal effect Chenopodium album” value in data set [5] is 5 (Herbicidal effect/phytotoxicity was 90% or greater). Besides, the “Herbicidal effect Amaranthus viridis” value in data set [6] was 5 (Herbicidal effect/phytotoxicity was 90% or greater). Besides, the “Phytotoxicity Corn” value in the data set with corn [7] was 0 (Herbicidal effect/phytotoxicity was 0% to 10%).

These data come from patent US9580444B2, “Polycyclic pyrazolinone derivative and herbicide comprising same as effective component thereof” (priority 2013, dated 2017).
